Reference: patent US20180312534A1, “FLUORESCENT ANTICANCER PLATINUM DRUGS” (INVICTUS ONCOLOGY PVT. LTD., priority 2015, published 2018)

System: A549
Test: Cellular uptake of fluorescent compounds (fluorescence microscopy)
Assay type: cell-based
Conditions: A549, post 5-hours incubation
Experimental: The intracellular localization of molecules was visualized by fluorescence microscopy. Cells were seeded on cover slips to a confluency of 40% and grown for 24 hours in a humidified chamber. Cells were treated with fluorescent compounds and incubated for 2, 5 and 24 hours. Following incubation, cells were washed with PBS, fixed in 4% paraformaldehyde and observed under epifluorescence microscope. Images were recorded in phase contrast and fluorescent channels. Cells treated with vehicle and/or ligand were considered as control and microscopically evaluated.

NCC(N)C(=O)OCCNc1ccc2cccc3c2c1C(=O)C=C3 (stereo not shown) [Im-02]
intracellular localization of fluorescence: punctate dots in the cytoplasm or along cell margins
